The results in this text go back to ChEMBL document CHEMBL5053486, “Defining Target Engagement Required for Efficacy In Vivo at the Retinoic Acid Receptor-Related Orphan Receptor C2 (RORγt)” (J Med Chem, 2021).

pIC50: −log10 of the molar value. Values after ≈ are worked out from the molar mass of the structure shown. Active and inactive are the calls of the source. No cut-off for these calls is given here.

Data set [1] deals with T1, Nuclear receptor ROR-gamma (Homo sapiens) (UniProt P51449).
T1 sequence (whole entry): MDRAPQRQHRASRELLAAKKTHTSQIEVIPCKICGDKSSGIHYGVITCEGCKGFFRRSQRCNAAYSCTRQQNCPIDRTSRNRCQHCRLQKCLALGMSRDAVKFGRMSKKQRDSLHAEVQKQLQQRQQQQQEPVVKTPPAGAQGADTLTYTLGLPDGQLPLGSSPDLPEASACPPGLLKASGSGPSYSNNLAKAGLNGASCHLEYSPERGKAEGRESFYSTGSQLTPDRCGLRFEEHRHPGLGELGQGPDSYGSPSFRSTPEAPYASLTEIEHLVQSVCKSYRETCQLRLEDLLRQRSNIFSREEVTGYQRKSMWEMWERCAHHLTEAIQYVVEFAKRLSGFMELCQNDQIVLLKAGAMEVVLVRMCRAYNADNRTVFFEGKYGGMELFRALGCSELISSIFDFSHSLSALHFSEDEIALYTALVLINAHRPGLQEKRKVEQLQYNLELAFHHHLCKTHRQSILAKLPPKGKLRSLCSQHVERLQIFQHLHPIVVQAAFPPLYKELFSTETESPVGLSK
Nature of the data set: Displacement of [3H]-25-hydroxycholesterol from His-Flag-tagged human RORgammat LBD (309 to 508 residues) expressed in Escherichia coli at 10 uM measured after 4 hrs by Microbeta counter based analysis relative to control. A general note: Displacement assays read how much labelled ligand stays bound in the presence of the test substance.

The conditions of data set [2]: human, microsomes, 0.5 h, 2 µM.
Data set [3] is described as follows: Apparent permeability from apical to basolateral side in dog MDCK cells at 20 uM at pH 7.4. Type of data set: ADME, cell-based, Canis lupus familiaris.
A short description of data set [4]: Solubility of the compound in FaSSIF measured after 16 hrs by HPLC analysis. The format is physicochemical.
The nature of data set [5]: Fraction unbound in human plasma incubated for 4.5 hrs by LC/MS/MS analysis. Type of data set: ADME, cell-free.
Data set [6] relates to Mus musculus. Nature of the data set: Antiinflammatory activity against glucose-6-phosphate isomerase induced arthritis mouse model assessed as complete prophylaxis at 100 mg/kg administered once daily for 21 days from GPI immunization. Type of data set: functional, organism-based. Particulars: time 21.0 day.
Data set [7] deals with Mus musculus. Nature of the data set: Antiinflammatory activity against glucose-6-phosphate isomerase induced arthritis mouse model assessed as improvement in clinical score at 10 to 30 mg/kg administered once daily for 21 days from GPI immunization. The format is functional, organism-based. Particulars: dose 10-30 mg/kg, time 21.0 day.
Data set [8] deals with Mus musculus. Nature of the data set: Antiinflammatory activity against glucose-6-phosphate isomerase induced arthritis mouse model assessed as reduction in IL-17 mRNA expression in paws at 3 mg/kg administered once daily for 21 days from GPI immunization by Taqman PCR analysis relative to control. Type of data set: functional. Also noted: scale not given: the % may be the effect or the level left. To be noted: time 21 day. (In general: Real-time PCR tracks product formation cycle by cycle.)

Data set [9] concerns Mus musculus. Nature of the data set: Antiinflammatory activity against glucose-6-phosphate isomerase induced arthritis mouse model assessed as reduction in IL-17 mRNA expression in paws at 10 mg/kg administered once daily for 21 days from GPI immunization by Taqman PCR analysis relative to control. The format is functional. Set-up: scale not given: the % may be the effect or the level left. Particulars: time 21 day.

Data set [10] has as its system Mus musculus. Nature of the data set: Antiinflammatory activity against glucose-6-phosphate isomerase induced arthritis mouse model assessed as reduction in IL-17 mRNA expression in paws at 30 mg/kg administered once daily for 21 days from GPI immunization by Taqman PCR analysis relative to control. The format is functional. Set-up: scale not given: the % may be the effect or the level left. Particulars: time 21 day.

For another data set, the system named is PBMC. To be noted: Mus musculus, dose 30-100 mg/kg, time 20-24 hrs.
A further data set is described as follows: cells. To be noted: Mus musculus, PBMC.

Description for PBMC: Inhibition of IL-17A secretion in antiCD3/IL-23 stimulated mouse PBMC cells in mouse plasma at 30 to 100 mg/kg when plasma exposure above 1.8 uM for 20 to 24 hrs
Description for cells: Inhibition of IL-17A secretion in antiCD3/IL-23 stimulated mouse PBMC cells in mouse plasma preincubated for 2 hrs followed by antiCD3/IL23 stimulation and measured after 6 hrs by Taqman PCR analysis

As for `COc1ccccc1-n1cc(CN2CCC3(CC2)OCC(F)(F)c2cc(Cl)sc23)c(C)n1`, the Activity in data set [1] came to 52%.

Consider `CS(=O)(=O)c1ccc(CNC(=O)c2cc3c(s2)C2(CCN(Cc4ccc(C#N)cc4)CC2)OCC3)cc1`, for which the CL free in [2] was found to be 80.7 mL/min/kg.

By Papp A→B is commonly meant the apparent permeability from the apical to the basolateral side of a cell layer. Usually solubility stands for how much of the substance goes into solution per volume. The fraction unbound is free concentration divided by total concentration. Broadly, the pIC50 is the negative decadic logarithm of the IC50, by convention in mol/L. As for `CCS(=O)(=O)c1ccc(CNC(=O)c2cc3c(s2)C2(CCN([C@H](C)c4ccc(C#N)cc4)CC2)OCC3)cc1`, the Papp A→B at 20 µM in data set [3] turned out to be 7.07 ×10⁻⁶ cm/s. This molecule yielded a solubility at 16 h in [4] of 9 µg/mL (≈ 16 µM). Also, in data set [5], the fraction unbound at 4.5 h is 0.02. For the same molecule, the outcome in the data set with Mus musculus [6] and in the data set with Mus musculus [7] was Active. Besides, the results for the Activity with Mus musculus [8], in the data set with Mus musculus [9] and in the data set with Mus musculus [10] were 82%, 90% and 88%, respectively. The molecule also had a CL free in data set [2] of 406 mL/min/kg. In the data set with PBMC, the inhibition entry was “Active”. Besides, the pIC50 in “cells” was 5.74.

Turning to `CCS(=O)(=O)c1ccc(CNC(=O)c2cc3c(s2)C2(CCN([C@H](C)c4cnc(C(F)(F)F)nc4)CC2)O[C@@H](C)C3)cc1`, the Papp A→B at 20 µM in [3] is 7.57 ×10⁻⁶ cm/s. Moreover, the solubility at 16 h in data set [4] came out at 24 µg/mL (≈ 38.5 µM). This molecule registered a fraction unbound at 4.5 h in data set [5] of 0.041. Besides, in data set [2], the CL free worked out at 36.2 mL/min/kg.

Turning to `CS(=O)(=O)c1ccc(CNC(=O)c2cc3c(s2)C2(CCN(Cc4ccc(Cl)cc4)CC2)OCC3)cc1`, the CL free in data set [2] was determined as 495 mL/min/kg.

On to `CS(=O)(=O)c1ccc(CNC(=O)c2cc3c(s2)C2(CCN(Cc4ccc(C(F)(F)F)cc4)CC2)OCC3)cc1`, for which, in data set [2], the CL free amounted to 448 mL/min/kg.

With `CCS(=O)(=O)c1ccc(CNC(=O)c2cc3c(s2)C2(CCN([C@H](C)c4ccc(C#N)cc4)CC2)OCC3)nc1`, in data set [3], the Papp A→B at 20 µM was 8.5 ×10⁻⁶ cm/s. The amount in solution in data set [4] (solubility at 16 h) came to 185 µg/mL (≈ 328 µM). Moreover, the fraction unbound at 4.5 h in data set [5] is 0.05. The same molecule had a CL free in data set [2] of 92.2 mL/min/kg.

`CCS(=O)(=O)c1ccc(CNC(=O)c2cc3c(s2)C2(CCN([C@H](C)c4cnc(C(F)(F)F)nc4)CC2)OCC3)cc1`: in data set [3], the Papp A→B at 20 µM is 8.56 ×10⁻⁶ cm/s. In data set [4], this molecule gave a solubility at 16 h of 16 µg/mL (≈ 26.3 µM). The molecule also had a fraction unbound at 4.5 h in data set [5] of 0.056. This molecule returned a CL free in [2] of 69.5 mL/min/kg.

In the case of `CS(=O)(=O)c1ccc(CNC(=O)c2cc3c(s2)C2(CCN(Cc4ccc(Cl)cc4Cl)CC2)OCC3)cc1`, the CL free in [2] amounted to 3450 mL/min/kg.

In the case of `CCS(=O)(=O)c1ccc(CNC(=O)c2cc3c(s2)C2(CCN([C@H](C)c4cnc(C(F)(F)F)nc4)CC2)O[C@@H](C)C3)nc1`, in data set [3], the Papp A→B at 20 µM worked out at 9.07 ×10⁻⁶ cm/s. The molecule also yielded a solubility at 16 h in data set [4] of 220 µg/mL (≈ 353 µM). In data set [5], this molecule gave a fraction unbound at 4.5 h of 0.12. For the same molecule, the CL free in [2] turned out to be 32 mL/min/kg.

For the molecule `C[C@H](c1ccc(C#N)cc1)N1CCC2(CC1)OCCc1cc(C(=O)NCc3ccc(S(C)(=O)=O)cc3)sc12`, in data set [2], the CL free stood at 218 mL/min/kg.
